In the test the target is IDH1 R132H (Homo sapiens, UniProt O75874, R132H). As to the kind of experiment: Assay for IDH1 R132H inhibitors (NADPH/aKG, resazurin detection). It counts as biochemical. The note with it: Table 3; enzyme assay, 50 minutes at room temperature; read-out: IC50 (IDH1 R132H Inhibition). The method, then: Assays were conducted in a volume of 76 μl assay buffer (150 mM NaCl, 10 mM MgCl2, 20 mM Tris pH 7.5, 0.03% bovine serum albumin) as follows in a standard 384-well plate: To 25 ul of substrate mix (8 uM NADPH, 2 mM aKG), 1 μl of test compound was added in DMSO. The plate was centrifuged briefly, and then 25 μl of enzyme mix was added (0.2 μg/ml IDH1 R132H) followed by a brief centrifugation and shake at 100 RPM. The reaction was incubated for 50 minutes at room temperature, then 25 μl of detection mix (30 μM resazurin, […]) was added and the mixture further incubated for 5 minutes at room temperature. The conversion of resazurin to resorufin was detected by fluorescent spectroscopy at Ex544 Em590 c/o 590.
Sequence of IDH1 R132H (O75874 whole entry R132H): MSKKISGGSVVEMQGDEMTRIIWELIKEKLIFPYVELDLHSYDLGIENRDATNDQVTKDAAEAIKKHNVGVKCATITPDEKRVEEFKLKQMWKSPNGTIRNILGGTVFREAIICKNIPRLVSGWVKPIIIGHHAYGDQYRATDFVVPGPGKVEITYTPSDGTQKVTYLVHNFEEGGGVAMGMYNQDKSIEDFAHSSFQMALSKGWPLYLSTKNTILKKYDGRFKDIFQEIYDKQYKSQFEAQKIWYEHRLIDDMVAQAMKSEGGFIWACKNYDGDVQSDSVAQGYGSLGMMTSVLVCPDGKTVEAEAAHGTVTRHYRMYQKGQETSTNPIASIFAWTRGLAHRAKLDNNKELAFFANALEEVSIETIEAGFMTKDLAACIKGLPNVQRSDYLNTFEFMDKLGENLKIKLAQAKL

Structures are written as SMILES.

Among the data in US9856279B2 (AGIOS PHARMACEUTICALS, INC, priority 2011, dated 2018) are IC50 values, retold here.

As usually defined, the IC50 is the concentration needed to halve the response being measured. For the compound `COc1cccc(-c2cc(C(C)C)nc(N3CCN(C(=O)c4ccoc4)[C@H](C)C3)c2C#N)c1` [Compound 151, (R)-2-(4-(furan-3-carbonyl)-3-methylpiperazin-1-yl)-6-isopropyl-4-(3-methoxyphenyl)nicotinonitrile], the IC50 was 1 to 5 µM. Next, `CC(C)c1cc(-c2cccc(O)c2)c(C#N)c(N2CCN(C(=O)c3ccoc3)[C@H](C)C2)n1` [Compound 152, (R)-2-(4-(furan-3-carbonyl)-3-methylpiperazin-1-yl)-4-(3-hydroxyphenyl)-6-isopropylnicotinonitrile]: 1 to 5 µM. As for `CC(C)c1nc(N2CCN(C(=O)c3ccoc3)C(c3ccccc3)C2)c(C#N)cc1-c1ccccc1` (centres unmarked) [Compound 153, 2-(4-(furan-3-carbonyl)-3-phenylpiperazin-1-yl)-6-isopropyl-5-phenylnicotinonitrile], the IC50 fell in the range of 5 to 15 µM. Next, `CC(C)c1cc(-c2ccccc2)c(C#N)c(N2CCN(C(=O)c3ccoc3)C(c3ccccc3)C2)n1` (centres unmarked) [Compound 154, 2-(4-(furan-3-carbonyl)-3-phenylpiperazin-1-yl)-6-isopropyl-4-phenylnicotinonitrile]: 5 to 15 µM; `CC(C)c1cc(-c2ccccc2)c(C#N)c(N2CCN(C(=O)c3ccco3)C(c3ccccc3)C2)n1` (centres unmarked) [Compound 155, 2-(4-(furan-2-carbonyl)-3-phenylpiperazin-1-yl)-6-isopropyl-4-phenylnicotinonitrile]: 5 to 15 µM.

`CC(C)c1cc(-c2cccc(F)c2)c(C#N)c(N2CCN(C(=O)c3ccoc3)[C@H](C)C2)n1` [Compound 156]: the IC50 was 1 to 5 µM. The result for `CC(C)c1cc(-c2ccccc2O)c(C#N)c(N2CCN(C(=O)c3ccoc3)[C@H](C)C2)n1` [Compound 157, (R)-2-(4-(furan-3-carbonyl)-3-methylpiperazin-1-yl)-4-(2-hydroxyphenyl)-6-isopropylnicotinonitrile] reads 5 to 15 µM. `Cc1ccccc1-c1cc(C(C)C)nc(N2CCN(C(=O)c3ccoc3)[C@H](C)C2)c1C#N` [Compound 158]: the IC50 is 1 to 5 µM.

Take `CC(C)c1nc(N2CCN(C(=O)c3ccoc3)CC2c2ccccc2)c(C#N)cc1-c1ccccc1` (centres unmarked) [Compound 159, 2-(4-(furan-3-carbonyl)-2-phenylpiperazin-1-yl)-6-isopropyl-5-phenylnicotinonitrile]: the IC50 was 5 to 15 µM.

Consider `CC(C)c1cc(-c2ccccc2)c(C#N)c(N2CCN(C(=O)c3ccoc3)CC2c2ccccc2)n1` (centres unmarked) [Compound 160, 2-(4-(furan-3-carbonyl)-2-phenylpiperazin-1-yl)-6-isopropyl-4-phenylnicotinonitrile], for which the IC50 lay within 5 to 15 µM.

Turning to `CC(C)c1nc(N2CCN(C(=O)c3ccoc3)[C@H](C)C2)c(C#N)cc1-c1cccc(F)c1` [Compound 161, (R)-5-(3-fluorophenyl)-2-(4-(furan-3-carbonyl)-3-methylpiperazin-1-yl)-6-isopropylnicotinonitrile], the IC50 is 1 to 5 µM.

Regarding `CC(=O)Oc1ccccc1-c1cc(C(C)C)nc(N2CCN(C(=O)c3ccoc3)[C@H](C)C2)c1C#N` [Compound 162, (R)-2-(3-cyano-2-(4-(furan-3-carbonyl)-3-methylpiperazin-1-yl)-6-isopropylpyridin-4-yl)phenylacetate], the IC50 is 1 to 5 µM.

Take `CCOc1ccccc1-c1cc(C(C)C)nc(N2CCN(C(=O)c3ccoc3)[C@H](C)C2)c1C#N` [Compound 163, (R)-4-(2-ethoxyphenyl)-2-(4-(furan-3-carbonyl)-3-methylpiperazin-1-yl)-6-isopropylnicotinonitrile]: the IC50 fell in the range of 1 to 5 µM.

For the compound `Cc1occc1C(=O)N1CCN(c2nc(C(C)C)c(-c3ccccc3)cc2C#N)C[C@H]1C` [Compound 164, (R)-6-isopropyl-2-(3-methyl-4-(2-methylfuran-3-carbonyl)piperazin-1-yl)-5-phenylnicotinonitrile], the concentration for half-maximal inhibition (IC50) lay within 1 to 5 µM. The result for `CC(C)c1nc(N2CCN(C(=O)Cc3cccs3)[C@H](C)C2)c(C#N)cc1-c1ccccc1` [Compound 165, (R)-6-isopropyl-2-(3-methyl-4-(2-(thiophen-2-yl)acetyl)piperazin-1-yl)-5-phenylnicotinonitrile] reads 1 to 5 µM; that for `CC(C)c1nc(N2CCN(C(=O)c3ccco3)CC2c2ccccc2)c(C#N)cc1-c1ccccc1` (centres unmarked) [Compound 166, 2-(4-(furan-2-carbonyl)-2-phenylpiperazin-1-yl)-6-isopropyl-5-phenylnicotinonitrile], 5 to 15 µM. For the compound `CC(C)c1cc(-c2ccccc2)c(C#N)c(N2CCN(C(=O)c3ccco3)CC2c2ccccc2)n1` (centres unmarked) [Compound 167, 2-(4-(furan-2-carbonyl)-2-phenylpiperazin-1-yl)-6-isopropyl-4-phenylnicotinonitrile], the IC50 lay in the range of 1 to 5 µM. On to `CC(C)c1nc(N2CCN(C(=O)c3c[nH]c4ccccc34)CC2c2ccccc2)c(C#N)cc1-c1ccccc1` (centres unmarked) [Compound 168, 2-(4-(1H-indole-3-carbonyl)-2-phenylpiperazin-1-yl)-6-isopropyl-5-phenylnicotinonitrile], for which the IC50 is 1 to 5 µM. For `CC(C)c1cc(-c2ccccc2)c(C#N)c(N2CCN(C(=O)c3c[nH]c4ccccc34)CC2c2ccccc2)n1` (centres unmarked) [Compound 169, 2-(4-(1H-indole-3-carbonyl)-2-phenylpiperazin-1-yl)-6-isopropyl-4-phenylnicotinonitrile], the half-maximal inhibitory concentration (IC50) fell in the range of 1 to 5 µM. Next, `CC(C)c1nc(N2CCN(C(=O)c3ccoc3)[C@H](C(C)C)C2)c(C#N)cc1-c1ccccc1` [Compound 170, (R)-2-(4-(furan-3-carbonyl)-3-isopropylpiperazin-1-yl)-6-isopropyl-5-phenylnicotinonitrile]: 1 to 5 µM. Regarding `CC[C@@H]1CN(c2nc(C(C)C)c(-c3ccccc3)cc2C#N)CCN1C(=O)c1ccoc1` [Compound 171, (R)-2-(3-ethyl-4-(furan-3-carbonyl)piperazin-1-yl)-6-isopropyl-5-phenylnicotinonitrile], the IC50 lay within 1 to 5 µM. Next, `CC[C@@H]1CN(c2nc(C(C)C)c(-c3ccccc3)cc2C#N)CCN1C(=O)c1ccco1` [Compound 172, (R)-2-(3-ethyl-4-(furan-2-carbonyl)piperazin-1-yl)-6-isopropyl-5-phenylnicotinonitrile]: 5 to 15 µM; `CC[C@@H]1CN(c2nc(C(C)C)c(-c3ccccc3)cc2C#N)CCN1C(=O)c1ccoc1C` [Compound 173, (R)-2-(3-ethyl-4-(2-methylfuran-3-carbonyl)piperazin-1-yl)-6-isopropyl-5-phenylnicotinonitrile]: 1 to 5 µM.

As to `CC[C@@H]1CN(c2nc(C(C)C)c(-c3ccccc3)cc2C#N)CCN1C(=O)Cc1cccs1` [Compound 174, (R)-2-(3-ethyl-4-(2-(thiophen-2-yl)acetyl)piperazin-1-yl)-6-isopropyl-5-phenylnicotinonitrile], the IC50 lay within 1 to 5 µM.

For the compound `COc1ccccc1-c1cc(C#N)c(N2CCN(C(=O)c3ccoc3)[C@H](C)C2)nc1C(C)C` [Compound 175, (R)-2-(4-(furan-3-carbonyl)-3-methylpiperazin-1-yl)-6-isopropyl-5-(2-methoxyphenyl)nicotinonitrile], the IC50 is 1 to 5 µM. The result for `COc1ccccc1-c1cc(C#N)c(N2CCN(C(=O)c3ccco3)[C@H](C)C2)nc1C(C)C` [Compound 176, (R)-2-(4-(furan-2-carbonyl)-3-methylpiperazin-1-yl)-6-isopropyl-5-(2-methoxyphenyl)nicotinonitrile] reads 1 to 5 µM.
